Legend:
Type in all cases: in vivo
Aedes aegypti [1] = assay: Repellency on treated membrane-covered blood-filled wells; details: 20 min; for Avg % Repellency: relative to control
Experimental: (§1) The invention is illustrated by, but not limited to, the following examples. • Five replicates of 250 adult female mosquitoes each were placed in clear plastic cages with access to five warmed, blood-filled, membrane-covered wells. The mosquitoes were Aedes aegypti unless otherwise noted. Membranes were treated with repellent. Five replicates were tested. Each replicate used a fresh batch of mosquitoes, blood and treated membranes. The number of mosquitoes probing each well was recorded at two minute intervals for 20 minutes. The total numbers of probes on each well were tallied at the end of the observation period and the average percentage repellency relative to the control was calculated for each formulation.

Aedes aegypti [2] = assay: Human forearm-in-cage test, time to first confirmed bite; details: max 8 hours
Experimental: (§2) In addition, human testing was performed to determine the efficacy of compounds from structure (I). Mosquito species used are described in the tables below. Each test subject was exposed to 2 products each test day. The application rate was between 0.65 ml and 1 ml/250 cm^2 for all repellents. The actual amount of repellent used was based upon the amount that provides thorough coverage of the 250 cm^2 treatment area. A repellent was applied using either a micropipette or a syringe minus the needle. The repellents were then evenly spread on the treatment area with a gloved finger. Each test subject's forearms were allowed to air dry for approximately 30 minutes prior to the first exposure. The study coordinator or technician assisted the test subjects in inserting their arms into the test cages containing 200 mosquitoes, taking care not to rub them on the cloth sleeve, to confirm that the insects were biting. If fewer than 10 mosquitoes land on the untreated arm in 60 seconds (all would normally bite), fresh mosquitoes will be added. Typically, the ten (10) landings took place within 10-30 seconds. Both treated arms were inserted into a cage; there were two subjects (4 arms) per cage. The test subjects exposed their treated forearms to the mosquitoes in the test cages for 5 minutes. The subjects then remove their arms from the cages with assistance from the study coordinator or a technician. Exposures of each arm were repeated every 30 minutes until the repellent on that arm was determined to be no longer effective (‘breakdown’) or until 8 hours have elapsed, whichever occurred first. Breakdown occurs when the first confirmed bite is noted. A confirmed bite occurs when a bite is followed by a second bite in the same exposure period or in the next succeeding exposure period. The second bite becomes the confirming bite and the breakdown time is taken as the time of the first bite. The average of two repetitions is given.

Culex quinquefasciatus [3] = assay: as above; details: 10%, max 8 hours
Experimental: as §2

[4] = tested on: Anopheles quadrimaculatus; assay: as above; details: 10%, max 8 hours
Experimental: as §2

Aedes aegypti [5] = assay: as above; details: without the use of polymers or other inert ingredients; species not stated
Aedes aegypti [6] = assay: Toxicity to mosquitoes of treated surface (aluminum foil), 5 min exposure; details: 2.5% in ethanol, dried on foil
Experimental: A test was designed to determine if two test samples at 2 concentrations applied to a surface are toxic to mosquitoes. Aluminum foil squares, […] were treated with one of the test samples and after drying were placed on top of large Petri dishes, 6″ in diameter. Inverted polystyrene cups, 3.5″ in diameter and 3″ high, each with a circular hole drilled through the bottom, and the sides and top painted with Fluon, were used as the treatment containers. They were placed on top of the Petri dishes and secured with rubber bands. Mosquitoes were aspirated and gently blown through the drilled hole into the arena. A plastic disc was then placed over the hole. Five replicates of ten female Aedes aegypti were used for the test sample treatment and an additional 5 replicates of 10 mosquitoes were used for solvent control. Mosquitoes were constantly exposed to the dried test material for 5 minutes, after which time they were transferred into clean containers, where they were provided a sucrose solution for nourishment. The formal observations for knockdown were made at 1 and 4 hours. At 24 hours the numbers of live, moribund and dead mosquitoes were counted.

Culex quinquefasciatus [7] = assay: Repellency on treated membrane-covered blood-filled wells; details: 7% in isopropanol, 20 min; for Avg % Repellency: relative to control
Experimental: as §1

## CCCCCCC1CC(C)=CC(O)C1 (stereo not shown) [3-methyl-5-hexyl-2-cyclohexenol]
Aedes aegypti [1]; 5% in isopropanol
  Avg # Probes: 1
  Avg % Repellency: 91%

## CCCCCCCC1CCCC(=O)O1 (stereo not shown) [delta-dodecalactone]
Aedes aegypti [1]; 7% in isopropanol
  Avg # Probes: 0
  Avg % Repellency: 100%

## CCCCCC1C(O)CCC1CC(=O)OCC (stereo not shown) [Ethyl Dihydrojasmolate]
Aedes aegypti [1]; 7% in isopropanol
  Avg # Probes: 0
  Avg % Repellency: 100%

## CC1CCC(C(C)(C)O)C(O)C1 (stereo not shown) [PMD, p-Menthane-3,8-diol, reference compound]
Aedes aegypti [1]; 7% in isopropanol
  Avg # Probes: 9
  Avg % Repellency: 79.2%
Aedes aegypti [2]; 5% in isopropanol
  100% bite protection time: 2.75 h
Aedes aegypti [2]; 10% in isopropanol
  100% bite protection time: 6.25 h
Culex quinquefasciatus [3]
  100% bite protection time: 4.25 h
[4]
  100% bite protection time: 6.75 h

## CCCCCC1C(O)CCC1CC(=O)OC (stereo not shown) [Methyl Dihydrojasmolate]
Aedes aegypti [1]; 4% in isopropanol
  Avg # Probes: 0.6
  Avg % Repellency: 98.8%
Aedes aegypti [1]; 7% in isopropanol
  Avg # Probes: 0
  Avg % Repellency: 100%

## CCN(CC)C(=O)c1cccc(C)c1 [DEET ®, N,N-Diethyl-m-toluamide, reference compound]
Aedes aegypti [1]; 4% in isopropanol
  Avg # Probes: 8.4
  Avg % Repellency: 90.8%
Aedes aegypti [1]; 10% in isopropanol
  Avg # Probes: 0.8
  Avg % Repellency: 98%

## CCCCCCCCCC1(C)CCC(=O)O1 (stereo not shown) [gamma Methyl Tridecalactone]
Aedes aegypti [1]; 5% in isopropanol
  Avg # Probes: 4
  Avg % Repellency: 96%

## CCCCCCCCC1(C)CCC(=O)O1 (stereo not shown) [gamma Methyl Dodecalactone]
Aedes aegypti [1]; 5% in isopropanol
  Avg # Probes: 1
  Avg % Repellency: 98%

## CCCCCCCCCC1CCC(=O)O1 (stereo not shown) [gamma-tridecalactone]
Aedes aegypti [1]; 5% in isopropanol
  Avg # Probes: 3.1
  Avg % Repellency: 94.4%
Aedes aegypti [1]; 7% in isopropanol
  Avg # Probes: 1.8
  Avg % Repellency: 97.5%
Aedes aegypti [2]; 30% in isopropanol
  100% bite protection time: 1 h

## CCCCCC1C(=O)CCC1CC(=O)OCCC (stereo not drawn) [Propyl Dihydrojasmonate - low epi, Propyl Dihydrojasmonate]
Aedes aegypti [1]; 2.5% in isopropanol
  Avg # Probes: 6
  Avg % Repellency: 85%

## CCCCCC1C(=O)CCC1CC(=O)OCCC (stereo not shown) [Propyl Dihydrojasmonate]
Aedes aegypti [1]; 5% in isopropanol
  Avg # Probes: 4
  Avg % Repellency: 97%
Aedes aegypti [1]; 5% in squalane
  Avg # Probes: 0
  Avg % Repellency: 99%
Aedes aegypti [1]; 7% in isopropanol
  Avg # Probes: 2.6
  Avg % Repellency: 95.6%
Aedes aegypti [2]; 15% in isopropanol
  100% bite protection time: <0.5 hr ^
Aedes aegypti [2]; 30% in isopropanol
  100% bite protection time: 1 h
Aedes aegypti [2]; 30% in squalane
  100% bite protection time: 2.75 h
Aedes aegypti [5]
  prolonged repellency: ≥ 8 h

## CCCCCCCCCCC1CCC(=O)O1 (stereo not shown) [gamma-tetradecalactone]
Aedes aegypti [1]; 7% in isopropanol
  Avg # Probes: 0.8
  Avg % Repellency: 98.9%
Aedes aegypti [2]; 15% in isopropanol
  100% bite protection time: 0.5 hr^

## CCCCCC1C(=O)CCC1CC(=O)N(CC)CC (stereo not shown) [methyl dihydrojasmonate amide]
Aedes aegypti [1]; 2.5% in isopropanol
  Avg # Probes: 18.6
  Avg % Repellency: 55%
Aedes aegypti [1]; 5% in isopropanol
  Avg # Probes: 6.8
  Avg % Repellency: 90.1%

## CCCCC1CC(=O)C=C(C)C1 (stereo not shown) [3-methyl-5-butyl-2-cyclohexenone]
Aedes aegypti [1]; 5% in isopropanol
  Avg # Probes: 1
  Avg % Repellency: 97%
Aedes aegypti [6]
  1 hr knockdown: 100%
  4 hr knockdown: 100%
  24 hr mortality: 88%

## CCCCCCCCCC1CCCC(=O)O1 (stereo not shown) [delta-tetradecalactone]
Aedes aegypti [1]; 7% in isopropanol
  Avg # Probes: 1.6
  Avg % Repellency: 97.3%

## CCCCCC1CCC(=O)O1 (stereo not shown) [gamma-nonalactone]
Aedes aegypti [1]; 7% in isopropanol
  Avg # Probes: 20.4
  Avg % Repellency: 77.1%

## CCCCCCCCC1CCC(=O)O1 (stereo not shown) [gamma-dodecalactone]
Aedes aegypti [1]; 7% in isopropanol
  Avg # Probes: 0
  Avg % Repellency: 100%
Culex quinquefasciatus [7]
  Avg # Probes: 0
  Avg % Repellency: 100%
Aedes aegypti [2]; 10% in isopropanol
  100% bite protection time: 1.25 h

## CCCCCCCC1CC(=O)C=C(C)C1 (stereo not shown) [3-methyl-5-heptyl-2-cyclohexenone]
Aedes aegypti [1]; 5% in isopropanol
  Avg # Probes: 0
  Avg % Repellency: 99%
Aedes aegypti [6]
  1 hr knockdown: 100%
  4 hr knockdown: 100%
  24 hr mortality: 98%

## CCC(C)=CCCC(C)=CCC1CCCC1O (stereo not shown) [methyl apritol]
Aedes aegypti [1]; 7% in isopropanol
  Avg # Probes: 6.6
  Avg % Repellency: 91.9%
Aedes aegypti [1]; 10% in isopropanol
  Avg # Probes: 6.8
  Avg % Repellency: 89.2%

## CCCCCC1C(O)CCC1CC(=O)OCC=C(C)C (stereo not shown) [Prenyl Dihydrojasmolate]
Aedes aegypti [1]; 7% in isopropanol
  Avg # Probes: 3.2
  Avg % Repellency: 92.2%

## farnesyl cyclopentanol
Aedes aegypti [1]; 7% in isopropanol
  Avg # Probes: 16.2
  Avg % Repellency: 67.8%

## CCCCCC1C(O)CCC1CCO (stereo not shown) [dihydrojasmindiol]
Aedes aegypti [1]; 7% in isopropanol
  Avg # Probes: 7.2
  Avg % Repellency: 84.3%

## CCCCCC1C(=O)CCC1CC(=O)OCC=C(C)C (stereo not shown) [Prenyl Dihydrojasmonate]
Aedes aegypti [1]; 7% in isopropanol
  Avg # Probes: 2.8
  Avg % Repellency: 92.6%

## CCC(C)CCCC(C)CCC1CCCC1=O (stereo not shown) [tetrahydromethyl apritone]
Aedes aegypti [1]; 7% in isopropanol
  Avg # Probes: 11
  Avg % Repellency: 74.9%

## CC/C(C)=C/CC/C(C)=C/CC1CCCC1=O (stereo not shown) [methyl apritone]
Aedes aegypti [1]; 7% in isopropanol
  Avg # Probes: 7.6
  Avg % Repellency: 90.4%
Aedes aegypti [1]; 10% in isopropanol
  Avg # Probes: 3.6
  Avg % Repellency: 93.9%
Culex quinquefasciatus [7]
  Avg # Probes: 0
  Avg % Repellency: 100%
Aedes aegypti [2]; 10% in isopropanol
  100% bite protection time: <0.5 hr ^

## CCCCCC1C(=O)CCC1CC(C)=O (stereo not shown) [amyl cyclopentanone propanone]
Aedes aegypti [1]; 7% in isopropanol
  Avg # Probes: 0
  Avg % Repellency: 100%

## CC(C)CCCC(C)CCC1CCCC1=O (stereo not shown) [tetrahydroapritone]
Aedes aegypti [1]; 7% in isopropanol
  Avg # Probes: 3.8
  Avg % Repellency: 93.7%

## CCCCCC1C(=O)CCC1CC(=O)OCCC (stereo not drawn) [Propyl Dihydrojasmonate - high epi, Propyl Dihydrojasmonate]
Aedes aegypti [1]; 2.5% in isopropanol
  Avg # Probes: 2
  Avg % Repellency: 95%

## CCCCCCC1CC(=O)C=C(C)C1 (stereo not shown) [3-methyl-5-hexyl-2-cyclohexenone]
Aedes aegypti [1]; 5% in isopropanol
  Avg # Probes: 0
  Avg % Repellency: 100%

## dihydrojasmolactone
Aedes aegypti [1]; 7% in isopropanol
  Avg # Probes: 0
  Avg % Repellency: 100%

## CCCCCCOC(=O)CC1CCC(=O)C1CCCCC (stereo not shown) [Hexyl Dihydrojamonate]
Aedes aegypti [1]; 7% in isopropanol
  Avg # Probes: 30.4
  Avg % Repellency: 66.1%
